Data reported in ChEMBL document CHEMBL4699601, “5-Phenyl-1,3,4-oxadiazol-2(3H)-ones Are Potent Inhibitors of Notum Carboxylesterase Activity Identified by the Optimization of a Crystallographic Fragment Screening Hit” (J Med Chem, 2020).
≈ marks a conversion by molar mass, not a printed value.

What was measured:
[1] = AUC (0 to infinity) in C57BL6 mouse brain at 10 mg/kg, po measured up to 24 hrs; assay type: ADME, organism-based; parameters: route oral, dose 10 mg/kg, time <=24; settings: in vivo
[2] = AUC (0 to t) in C57BL6 mouse brain at 10 mg/kg, po measured up to 24 hrs; assay type: ADME, organism-based; settings: in vivo
[3] = AUC (0 to infinity) in C57BL6 mouse plasma at 10 mg/kg, po measured up to 24 hrs; assay type: ADME, organism-based; parameters: route oral, dose 10 mg/kg, time <=24
physchem [4] = settings: buffer
[5] = Half life in C57BL6 mouse plasma at 10 mg/kg, po measured up to 24 hrs; assay type: ADME, organism-based
in vitro [6] = settings: dog, MDCK-MDR1
[7] = AUC (0 to t) in C57BL6 mouse plasma at 10 mg/kg, po measured up to 24 hrs; assay type: ADME, organism-based; parameters: route oral, dose 10 mg/kg, time <=24
[8] = Tmax in C57BL6 mouse plasma at 10 mg/kg, po measured up to 24 hrs; assay type: ADME, organism-based
in vitro [9] = settings: dog, MDCK-MDR1; remark: listed apart in the source
[10] = Unbound brain-to-plasma concentration ratio in C57BL6 mouse plasma at 10 mg/kg, po measured up to 24 hrs; assay type: ADME, organism-based; settings: brain and plasma, read-out: K(p,uu,brain)
[11] = Half life in C57BL6 mouse brain at 10 mg/kg, po measured up to 24 hrs; assay type: ADME, organism-based
physchem [12] = settings: buffer, pH 7.4
[13] = Tmax in C57BL6 mouse brain at 10 mg/kg, po measured up to 24 hrs; assay type: ADME, organism-based
[14] = Cmax in C57BL6 mouse brain at 10 mg/kg, po measured up to 24 hrs; assay type: ADME, organism-based; parameters: route oral, dose 10 mg/kg, time <=24
[15] = Cmax in C57BL6 mouse plasma at 10 mg/kg, po measured up to 24 hrs; assay type: ADME, organism-based; parameters: route oral, dose 10 mg/kg, time <=24

Oc1nnc(-c2ccc(Cl)c(C(F)(F)F)c2)o1
AUC [1]: 9910 ng·h/g
AUCt [2]: 8870 ng·h/g
AUC(0-inf) [3]: 63100 ng·h/mL
solubility (physchem [4]): 710 µM (≈ 188 µg/mL)
half-life [5]: 3.7 h
Papp A→B (in vitro [6]): 34 ×10⁻⁶ cm/s
AUC(0-t) at 24 h [7]: 50400 ng·h/mL
Tmax [8]: 0.5 h
Papp B→A (in vitro [9]): 55 ×10⁻⁶ cm/s
Kp uu at 24 h [10]: 0.025
half-life [11]: 2.3 h
logD (physchem [12]): 2.6
Tmax [13]: 0.17 h
Cmax [14]: 2990 ng/g
Cmax [15]: 16600 ng/mL

Oc1nnc(-c2ccc(Cl)c(C(F)(F)F)c2)s1
solubility (physchem [4]): 22 µM (≈ 6.17 µg/mL)
Papp A→B (in vitro [6]): 45 ×10⁻⁶ cm/s
Papp B→A (in vitro [9]): 70 ×10⁻⁶ cm/s
